Measurements: ChEMBL document CHEMBL1139153, “Comparison of the in vitro apparent permeability and stability of opioid mimetic compounds with that of the native peptide” (Bioorg Med Chem Lett, 2007)

assay: Apparent permeability from apical to basolateral side of human Caco-2 cell membrane; format: ADME, cell-based

Structure (SMILES) | Papp A→B
Cc1cc(O)cc(C)c1CC(N)C(=O)NCCCCc1nc(O)c(CCCCNC(=O)C(N)Cc2c(C)cc(O)cc2C)nc1C (centres undefined) | 0.845 ×10⁻⁶ cm/s
Cc1cc(O)cc(C)c1CC(N)C(=O)NCCCc1nc(O)c(CCCNC(=O)C(N)Cc2c(C)cc(O)cc2C)nc1C (centres undefined) | 0.547 ×10⁻⁶ cm/s
Cc1cc(O)cc(C)c1CC(N)C(=O)NCCCCNC(=O)C(N)Cc1c(C)cc(O)cc1C (centres undefined) | 0.139 ×10⁻⁶ cm/s
NC(=O)[C@H](Cc1ccccc1)NC(=O)[C@H](Cc1ccccc1)NC(=O)[C@@H]1CCCN1C(=O)[C@@H](N)Cc1ccc(O)cc1 [ENDOMORPHIN 2] | 0.0643 ×10⁻⁶ cm/s
